One may read the melting point as the temperature, or range, at which the solid turns liquid.

Bounds are passed on as bounds.

For `Cc1cccc(COc2cccc3c2C(=O)N(C2CCC(=O)NC2=O)C3=O)c1` (stereo not drawn) [Example 10, 2-(2,6-Dioxo-piperidin-3-yl)-4-(3-methyl-benzyloxy)-isoindole-1,3-dione], the melting point was in the range of 195 to 197 °C. Consider `O=C1CCC(N2C(=O)c3cccc(OCc4cccc(F)c4)c3C2=O)C(=O)N1` (stereo not drawn) [Example 8, 4-(3-Fluoro-benzyloxy)-2-(2,6-dioxo-piperidin-3-yl)-isoindole-1,3-dione], for which the melting point lay within 241 to 243 °C. Under `O=C1CCC(N2C(=O)c3cccc(OCc4ccc(Cl)cc4)c3C2=O)C(=O)N1` (stereo not drawn) [Example 5, 4-(4-Chloro-benzyloxy)-2-(2,6-dioxo-piperidin-3-yl)-isoindole-1,3-dione] stands 239 to 241 °C.

Compound `COc1cccc(COc2cccc3c2C(=O)N(C2CCC(=O)NC2=O)C3=O)c1` (stereo not drawn) [Example 12, 2-(2,6-Dioxo-piperidin-3-yl)-4-(3-methoxy-benzyloxy)-isoindole-1,3-dione] gave a melting point of 197 to 201 °C. Compound `O=C1CCC(N2C(=O)c3cccc(OCc4ccc5c(c4)OCO5)c3C2=O)C(=O)N1` (stereo not drawn) [Example 13, 4-(Benzo[1,3]dioxol-5-ylmethoxy)-2-(2,6-dioxo-piperidin-3-yl)-isoindole-1,3-dione] showed a melting point of 229 to 231 °C. `O=C1CCC(N2C(=O)c3cccc(OCc4ccc(Cl)s4)c3C2=O)C(=O)N1` (stereo not drawn) [Example 22]: the melting point lay in the range of 217 to 219 °C. `CS(=O)(=O)c1ccc(COc2cccc3c2C(=O)N(C2CCC(=O)NC2=O)C3=O)cc1` (stereo not drawn) [Example 11, 2-(2,6-Dioxo-piperidin-3-yl)-4-(4-methanesulfonyl-benzyloxy)-isoindole-1,3-dione] came in with a melting point of 293 to 295 °C. To `COc1ccc(COc2cccc3c2C(=O)N(C2CCC(=O)NC2=O)C3=O)cc1` (stereo not drawn) [Example 24, 2-(2,6-Dioxo-piperidin-3-yl)-4-(4-methoxy-benzyloxy)-isoindole-1,3-dione] belongs 178 to 180 °C; to `O=C1CCC(N2C(=O)c3cccc(OCc4ccc5ccccc5n4)c3C2=O)C(=O)N1` (stereo not drawn) [Example 16, 2-(2,6-Dioxo-piperidin-3-yl)-(quinolin-2-ylmethoxy)-isoindole-1,3-dione], 254 to 256 °C; to `O=C1CCC(N2C(=O)c3cccc(OCc4cnc5ccccc5c4)c3C2=O)C(=O)N1` (stereo not drawn) [Example 15, 2-(2,6-Dioxo-piperidin-3-yl)-4-(quinolin-3-ylmethoxy)-isoindole-1,3-dione], 263 to 265 °C. Under `O=C1CCC(N2C(=O)c3cccc(OCc4cc(Cl)cc(Cl)c4)c3C2=O)C(=O)N1` (stereo not drawn) [Example 7, 4-(3,5-Dichloro-benzyloxy)-2-(2,6-dioxo-piperidin-3-yl)-isoindole-1,3-dione] stands 278 to 280 °C; under `O=C1CCC(N2C(=O)c3cccc(OCc4cc5ccccc5o4)c3C2=O)C(=O)N1` (stereo not drawn) [Example 17, 4-(Benzofuran-2-ylmethoxy)-2-(2,6-dioxo-piperidin-3-yl)-isoindole-1,3-dione], 234 to 236 °C. To `O=C1CCC(N2C(=O)c3cccc(OCc4cc5ccccc5s4)c3C2=O)C(=O)N1` (stereo not drawn) [Example 18, 4-(Benzo[b]thiophen-2-ylmethoxy)-2-(2,6-dioxo-piperidin-3-yl)-isoindole-1,3-dione] belongs 247 to 249 °C. `O=C1CCC(N2C(=O)c3cccc(OCc4ccc(Cl)c(Cl)c4)c3C2=O)C(=O)N1` (stereo not drawn) [Example 6, 4-(3,4-Dichloro-benzyloxy)-2-(2,6-dioxo-piperidin-3-yl)-isoindole-1,3-dione] registered a melting point of 245 to 247 °C. To `O=C1CCC(N2C(=O)c3cccc(OCc4cccc(Cl)c4)c3C2=O)C(=O)N1` (stereo not drawn) [Example 4, 4-(3-Chloro-benzyloxy)-2-(2,6-dioxo-piperidin-3-yl)-isoindole-1,3-dione] belongs 249 to 251 °C; to `O=C1CCC(N2C(=O)c3cccc(OCc4ccc5ccccc5c4)c3C2=O)C(=O)N1` (stereo not drawn) [Example 14, 2-(2,6-Dioxo-piperidin-3-yl)-(naphthalene-2-ylmethoxy)-isoindole-1,3-dione], more than 260 °C. To `O=C1CCC(N2C(=O)c3cccc(OCc4cc5c(F)cccc5s4)c3C2=O)C(=O)N1` (stereo not drawn) [Example 21, 2-(2,6-Dioxo-piperidin-3-yl)-4-(4-fluoro-benzo[b]thiophen-2-ylmethoxy)-isoindole-1,3-dione] belongs 264 to 266 °C; to `O=C1CCC(N2C(=O)c3cccc(OCc4cccc(Br)c4)c3C2=O)C(=O)N1` (stereo not drawn) [Example 9, 4-(3-Bromo-benzyloxy)-2-(2,6-dioxo-piperidin-3-yl)-isoindole-1,3-dione], 246 to 248 °C; to `O=C1CCC(N2C(=O)c3cccc(OCc4ccco4)c3C2=O)C(=O)N1` (stereo not drawn) [Example 19, 2-(2,6-Dioxo-piperidin-3-yl)-4-(furan-2-ylmethoxy)-isoindole-1,3-dione], 184 to 186 °C. To `CC(Oc1cccc2c1C(=O)N(C1CCC(=O)NC1=O)C2=O)c1ccc2ccccc2c1` (stereo not drawn) [Example 23, 2-(2,6-Dioxo-piperidin-3-yl)-4-(1-naphthalen-2-yl-ethoxy)-isoindole-1,3-dione] belongs 174 to 176 °C. Consider `O=C1CCC(N2C(=O)c3cccc(OCc4sc5ccccc5c4Cl)c3C2=O)C(=O)N1` (stereo not drawn) [Example 20, 4-(3-Chloro-benzo[b]thiophen-2-ylmethoxy)-2-(2,6-dioxo-piperidin-3-yl)-isoindole-1,3-dione], for which the melting point was in the range of 240 to 242 °C.
